Measurements: US20230302131A1, “MPC INHIBITION FOR PRODUCING T-CELLS WITH A MEMORY PHENOTYPE” (UNIVERSITÉ DE LAUSANNE, priority 2020, published 2023)
Entries after “also recorded” stand apart in the source; their conditions may differ.

Columns and labels:
B16-OVA tumor = test: B16-OVA melanoma tumor model, adoptive cell transfer of pre-treated OT1 cells; format: in vivo, mouse
Method: To assess the functional capacity of the generated memory T cells, the MPCi-treated cells were further tested in a mouse model of melanoma. Briefly, 10^5 ovalbumin-expressing B16 melanoma cells were injected subcutaneously in 6-week-old mice. At day 6 post-engraftment, when a palpable tumor was present, mice were irradiated with 5Gy. The next day 10^5 MPCi- or DMSO-treated OT1 cells were intravenously injected, followed by a subcutaneous vaccination of 50 μg CpG and 10 μg SIINFEKL (FIG. 2A). […] Confirming the Listeria data, the proportion of central memory CD8+ T cells in the spleen was increased upon MPCi treatment (FIG. 2C).
Activated CD45.1+OT-1 splenocytes were culture in vitro for 7 days as described above, collected and purified on a Ficoll gradient, allowing to separate dead and live splenocytes. Live splenocytes were counted with Trypan blue stain 0.4%. 100′000 live splenocytes were transferred into CD45.2+ host mice by tail vein injection.
B16-OVA cells were cultured in DMEM (GIBCO) with 10% FBS and 1% P/S before their subcutaneous injection into the mouse flank. Each mouse received 100′000 cells in a volume of 200 μl of PBS. 6 days after B16-OVA cells injection, tumors were measured, mice were randomized and lymphodepleted by irradiation (5 Gray). 7 days after B16-Ova injection, mice were adoptively transferred with the ACT protocol described previously. Following the ACT, mice received a vaccination of CpG (50 μg/mouse) and N4 Ova peptide (10 μg/mouse) diluted in PBS to obtain a total volume of 100 μl/mouse, injected subcutaneously at the tail base. Tumors were measured every 2 days and the tumor volume was calculated according to the formula: V=π×[d2×D]/6, where d is the minor tumor axis and D is the major tumor axis. At day 26 days post-tumor engraftment, tumors and spleens were dissected were then stained for flow cytometry analyses.
Antibody panel for intra-tumoral T cells and splenocytic T cells was: CD8-PE-texas-Red, CD45.1-Pacific blue, CD45.2-FITC, CD62L-PE-Cy7, CD44-APC-Cy7, PD1-APC, Lag3-PE, and CD127-FITC.
Antibody panel for cytokine detection contained: CD8-PE-texas-Red, CD45.1-FITC, CD45.2-APC, TNFa-Pacific blue, IFNg-PerCP-Cy5.5, IL-2-PE.

OT1 CD8 T cells = test: In vitro activation of OT1 splenocytes with N4 peptide and IL-2, CD62L by flow cytometry; format: cell-based, mouse
Method: To evaluate the effects of MPC inhibition on T cell differentiation, OT1 splenocytes were cultured in the presence of 1 μg/ml ovalbumin-derived N4 (SIINFEKL) peptide, 100 IU/ml recombinant human IL-2 (rhIL-2) and the MPC inhibitor (MPCi) UK5099 at 75 μM or control DMSO for 3 days. The inhibitor or DMSO was then washed away and the cells were cultured for 4 more days in the presence of 100 IU/ml IL-2 and 10 ng/ml rhIL-7 (FIG. 1A). […] Thus, the increase in the memory markers upon MPCi in vitro treatment occurs at the transcriptional level.
OT1 splenocytes were cultured for 3 days at a concentration of 10^6 cells per mL in RPMI medium (Gibco 61870-01) supplemented with 10% FBS, (Gibco 10270-106), 1% Penicillin/Streptomycin (Gibco 15070-063), 50 μM β-mercaptoethanol, 1% HEPES (Gibco 15630-080), 1× Non-essential amino acids (Gibco 11140-035), 1% L-glutamine (Gibco 25030-081), 1 mM Sodium Pyruvate (Gibco 11360-039). Cells were additionally supplemented with hIL-2 100 U/ml (Glaxo-IMB), ovalbumin N4 peptide (SIINFEKL) 1 μg/ml and either with 75 μM UK5099 (Sigma Aldrich) or with their solvent DMSO as a control. At day 3, splenocytes were collected, washed and split, and cells were cultured for 4 additional days with 100 U/ml hIL-2 and hIL-7 (Peprotech 200-07) supplemented either with 75 μM UK5099 (Sigma Aldrich) or DMSO. […]

OT2 CD4 T cells = test: OT2 CD4 T cell co-culture with dendritic cells, CD62L by flow cytometry; format: cell-based, mouse; settings: 75 μM; day 7; vs DMSO
Method: Naïve CD4 T cells were isolated by negative selection (Stem Cell Technologies) from the spleen of OT2 mice. Dendritic cells were isolated from spleens of C57BL/6 mice by CD11c positive selection (Stem Cell Technologies). 2×10^5 CD4 T cells were co-cultured with 1×10^6 dendritic cells in RPMI medium supplemented with 10% FBS, 1% Penicillin/Streptomycin, 50 μM β-mercaptoethanol, 1% HEPES, 1× Non-essential amino acids (Gibco 11140-035), 2 mM L-glutamine and 1 mM Sodium Pyruvate. T cells were activated by adding 1 μg/ml Ovalbumine peptide (323-339, ISQAVHAAHAEINEAGR) and 100 IU/ml rhIL-2, in the presence of 75 μM UK5099 or DMSO. Cells were split on day 4 and re-cultured in fresh medium containing 100 IU/ml rhIL-2, in the presence of 75 μM UK5099 or DMSO.
An experiment has been performed on mouse T cells in order to evaluate if MPC inhibition also promotes memory marker expression in CD4 T cells. As indicated in the experimental scheme (FIG. 5A), CD4 T cells from OT2 mice were activated by co-culture with dendritic cells. OT2 mice are transgenic for an […] recognizing specifically a chicken ovalbumine peptide 323-339 associated with the mouse MHC class II molecule I-Ab. We activated OT2 CD4 T cells by co-culture with dendritic cells loaded with […] of the ovalbumine peptide in the presence of 100 IU/ml recombinant human IL2 in the presence of 75 μM UK5099 or DMSO control. […]

In the case of N#CC(=Cc1cn(-c2ccccc2)c2ccccc12)C(=O)O [UK5099, 2-cyano-3-(1-phenyl-1H-indol-3-yl)-2-propenoic acid], the “proportion of central memory CD8+ T cells in the spleen” value (B16-OVA tumor; CD44 and CD62L double positive of transferred cells) is reported as “increased”, the B16 tumor growth (B16-OVA tumor; mice that received 10^5 pre-treated OT1 CD8+ T cells, compared to DMSO, listed as MPCi) is reported as “enhanced anti-tumoral activity; also recorded: strongly reduced” and the “expression of PD-1 in T cells infiltrating the tumor” value (B16-OVA tumor; transferred CD8+CD45.1+ population in the tumor, vs DMSO) is reported as “significantly decreased”. For the same molecule, the “cells double positive for IFNγ and TNF upon restimulation” value (B16-OVA tumor; tumor single cell suspension restimulated with SIINFEKL for 4 h) was “higher proportion”, the “percentage of transferred cells out of total CD8+ T cells in spleen and tumor” value (B16-OVA tumor; upon dissection, data not shown) was “not strikingly different” and the “surface expression of the central memory marker CD62L” value (OT1 CD8 T cells; 75 μM d0-d3, then washed away, flow cytometry day 7, compared to DMSO) was “strong increase”. For the same molecule, the “surface CD62L expression at day 7, continued treatment” value (OT1 CD8 T cells; MPCi treatment continued between d3 and d7) was “even more pronounced than a d0-d3 treatment only” and the “CD62L-positive population of mouse CD4 T cells” value (OT2 CD4 T cells) was “strong increase”.
